The record followed here is patent US10954221B2, “GLP-1R agonists and uses thereof” (QILU REGOR THERAPEUTICS INC., priority 2019, dated 2021).

Assay [1] has as its target T1, GLP1R (Homo sapiens, UniProt P43220). Briefly: cAMP assay in CHO cells stably expressing hGLP-1R. Details: expressed in transfected cells; host or cells: CHO cells stably transfected. The following applies: CHO cells stably expressing hGLP-1R (Table 2), read-out: CHO cAMP stable EC50. It counts as cell-based. As for the experimental part: GLP-1R-mediated agonist activity was determined with a cell-based functional assay utilizing an HTRF (Homogeneous Time-Resolved Fluorescence) cAMP detection kit (cAMP Dynamic 2 Assay Kit; CisBio cat #62AM4PEC) that measures cAMP levels in the cell. The method is a competitive immunoassay between native cAMP produced by the cells and exogenous cAMP labeled with the dye d2. The tracer binding is visualized by a mAb anti-cAMP labeled with Cryptate. The specific signal (i.e., energy transfer) is inversely proportional to the concentration of cAMP in either standard or experimental sample.
Following the 30 minute incubation, 5 μL of labeled d2 cAMP and 5 μL of anti-cAMP antibody (both diluted 1:20 in cell lysis buffer; as described in the manufacturer's assay protocol) were added to each well of the assay plate. […] Raw data were converted to nM cAMP by interpolation from a cAMP standard curve (as described in the manufacturer's assay protocol) and the percent effect was determined relative to a saturating concentration of the full agonist GLP-17-37 (10 nM) included on each plate. EC50 determinations were made from agonist dose-response curves analyzed with a curve fitting program using a 4-parameter logistic dose response equation. […]
Target sequence in this assay (P43220 24-463): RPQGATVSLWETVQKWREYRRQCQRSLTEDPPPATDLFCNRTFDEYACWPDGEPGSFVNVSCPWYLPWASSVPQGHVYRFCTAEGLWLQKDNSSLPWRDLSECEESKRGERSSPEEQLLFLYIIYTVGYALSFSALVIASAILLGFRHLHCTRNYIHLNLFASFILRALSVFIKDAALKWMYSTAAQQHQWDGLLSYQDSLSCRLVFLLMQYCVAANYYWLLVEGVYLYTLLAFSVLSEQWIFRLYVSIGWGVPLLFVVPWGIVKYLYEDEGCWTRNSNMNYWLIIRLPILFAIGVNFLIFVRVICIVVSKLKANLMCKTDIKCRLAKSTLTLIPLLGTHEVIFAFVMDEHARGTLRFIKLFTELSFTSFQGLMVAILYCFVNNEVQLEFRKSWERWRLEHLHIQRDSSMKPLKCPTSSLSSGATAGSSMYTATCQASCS

Assay [2] concerns the target T1, GLP1R. Briefly: GLP1R cAMP assay (HTRF), HEK293/GLP-1R/CRE/Luc, Clone 4.
Target sequence in this assay (P43220 24-463): as above
Assay [3] addresses T1, GLP1R. On the set-up: Emax: dose or concentration left out as unconfirmed. The conditions noted are these: CHO-K1, […], read-out: β-arrestin recruitment Bmax (%).
Target sequence in this assay (P43220 24-463): as above
Target sequence in this assay (P32121 whole entry partner): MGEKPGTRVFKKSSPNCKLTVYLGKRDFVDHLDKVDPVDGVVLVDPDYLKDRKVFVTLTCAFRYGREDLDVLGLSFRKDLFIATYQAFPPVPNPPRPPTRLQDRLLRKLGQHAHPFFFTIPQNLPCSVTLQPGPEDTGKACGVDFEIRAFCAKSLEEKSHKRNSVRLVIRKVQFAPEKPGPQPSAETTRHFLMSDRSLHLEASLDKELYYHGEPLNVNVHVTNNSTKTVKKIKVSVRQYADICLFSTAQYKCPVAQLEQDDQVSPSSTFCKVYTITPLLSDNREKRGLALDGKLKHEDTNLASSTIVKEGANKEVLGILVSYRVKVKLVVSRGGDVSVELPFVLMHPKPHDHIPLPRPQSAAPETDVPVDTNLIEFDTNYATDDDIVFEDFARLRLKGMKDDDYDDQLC
In assay [4] the target is T1, GLP1R. Briefly: β-Arrestin-mediated GLP1R internalization assay (PathHunter U2OS cells). It counts as cell-based. On the set-up: host or cells: PathHunter engineered U2OS cells. The following applies: averaged Bmax where applicable, Percentage of Control GLP-1 (7-37), top 10 μM, 180 min. The text has this:
A similar assay can also be used to assess the extent of signal attenuation due to GLP-1R internalization (the Internalization Assay). In this assay, activated GLP1R Internalization cells were engineered to co-express an untagged GLP1R, Enzyme Acceptor (EA) tagged β-Arrestin, and a ProLink™ (PK) tag localized to the endosomes. Activation of the GLP1R induces β-Arrestin recruitment, which leads to internalization of the Receptor/Arrestin-EA complex in PK-tagged endosomes. This forces complementation of the two β-galactosidase enzyme fragments (EA and PK) to form a functional enzyme that hydrolyzes substrate to generate a chemiluminescent signal.
Frozen cells were quickly thawed and 10 mL of cell plating medium (provided by the kit) was added to thawed cells. Cells were stored in a 37° C. incubator and kept for approximately 48 hours until ready for the assay.
Reference and test compounds were dissolved in 100% DMSO. […] 5 μL of this solution was added to 20 μL cell medium in assay plate for a final top concentration of 10 μM. Plates were incubated at 37° C. for 180 min.
Following 180 min incubation, detection reagents were made up by combining 1 part Galacton Star Substrate with 5 parts Emerald II™ Solution, and 19 parts of PathHunter Cell Assay Buffer, respectively. 12.5 μL detection reagent was added to each well. The plates were then incubated at room temperature for 60 min. Plates were then read on Envision for 0.1 sec/well.
EC50 determinations were made from agonist dose-response curves analyzed with a curve fitting program using a 4-parameter logistic dose response equation.
Target sequence in this assay (P43220 24-463): as the sequence (P43220 24-463) above
Target sequence in this assay (P32121 whole entry partner): as the sequence (P32121 whole entry partner) above

Where only a bound is given, the exact number is not on record here.

With `N#Cc1cnc(COc2nc(-c3ccc(Cc4nc5ccc(C(=O)O)nc5n4C[C@@H]4CCO4)c(F)c3)ncc2F)c(F)c1` [Compound 301, (S)-2-(4-(4-((5-cyano-3-fluoropyridin-2-yl)methoxy)-5-fluoropyrimidin-2-yl)-2-fluorobenzyl)-3-(oxetan-2-ylmethyl)-3H-imidazo[4,5-b]pyridine-5-carboxylic acid], the 50% effective concentration (EC50) is 15 to 150 nM in assay [1] and < 15 nM in assay [2].

Regarding `N#Cc1ccc(COc2nc(-c3cc(F)c(Cc4nc5ccc(C(=O)O)nc5n4C[C@@H]4CCO4)cc3F)ncc2F)nc1` [Compound 280, (S)-2-(4-(4-((5-cyanopyridin-2-yl)methoxy)-5-fluoropyrimidin-2-yl)-2,5-difluorobenzyl)-3-(oxetan-2-ylmethyl)-3H-imidazo[4,5-b]pyridine-5-carboxylic acid], the EC50 is 15 to 150 nM in assay [1] and < 15 nM in assay [2].

In the case of `O=C(O)c1ccc2nc(Cc3ccc(-c4ncc(F)c(OCc5ncc(Cl)cc5F)n4)cc3F)n(C[C@@H]3CCO3)c2n1` [Compound 294, (S)-2-(4-(4-((5-chloro-3-fluoropyridin-2-yl)methoxy)-5-fluoropyrimidin-2-yl)-2-fluorobenzyl)-3-(oxetan-2-ylmethyl)-3H-imidazo[4,5-b]pyridine-5-carboxylic acid], the EC50 in assay [1] was 15 to 150 nM; in assay [2] it was < 15 nM.

For `N#Cc1ccc(COc2cccc(-c3ccc(Cc4nc5ccc(C(=O)O)nc5n4C[C@@H]4CCO4)c(F)c3)n2)nc1` [Compound 288, (S)-2-(4-(6-((5-cyanopyridin-2-yl)methoxy)pyridin-2-yl)-2-fluorobenzyl)-3-(oxetan-2-ylmethyl)-3H-imidazo[4,5-b]pyridine-5-carboxylic acid], the EC50 in assay [1] is 15 to 150 nM; in assay [2] it was < 15 nM.

As to `O=C(O)c1ccc2nc(Cc3cc(F)c(-c4ncc(F)c(OCc5ccc(Cl)cn5)n4)cc3F)n(C[C@@H]3CCO3)c2n1` [Compound 300, (S)-2-(4-(4-((5-chloropyridin-2-yl)methoxy)-5-fluoropyrimidin-2-yl)-2,5-difluorobenzyl)-3-(oxetan-2-ylmethyl)-3H-imidazo[4,5-b]pyridine-5-carboxylic acid], the figures for the EC50 in assay [1] and in assay [2] were 15 to 150 nM and < 15 nM, respectively.

Consider `O=C(O)c1ccc2nc(Cc3cc(F)c(-c4ncc(F)c(OCc5ncc(Cl)cc5F)n4)cc3F)n(C[C@@H]3CCO3)c2c1` [Compound 272, (S)-2-(4-(4-((5-chloro-3-fluoropyridin-2-yl)methoxy)-5-fluoropyrimidin-2-yl)-2,5-difluorobenzyl)-1-(oxetan-2-ylmethyl)-1H-benzo[d]imidazole-6-carboxylic acid], for which the EC50 in assay [1] is 15 to 150 nM; in assay [2], < 15 nM.

Turning to `O=C(O)c1ccc2nc(Cc3cc(F)c(-c4cccc(OCc5ccc(F)cn5)n4)cc3F)n(C[C@@H]3CCO3)c2n1` [Compound 298, (S)-2-(2,5-difluoro-4-(6-((5-fluoropyridin-2-yl)methoxy)pyridin-2-yl)benzyl)-3-(oxetan-2-ylmethy)-3H-imidazo[4,5-b]pyridine-5-carboxylic acid], the results for the EC50 in assay [1] and in assay [2] were 15 to 150 nM and < 15 nM, respectively.

`O=C(O)c1ccc2nc(Cc3cc(F)c(-c4cccc(OCc5ccc(Cl)cn5)n4)cc3F)n(C[C@@H]3CCO3)c2n1` [Compound 296, (S)-2-(4-(6-((5-chloropyridin-2-yl)methoxy)pyridin-2-yl)-2,5-difluorobenzyl)-3-(oxetan-2-ylmethyl)-3H-imidazo[4,5-b]pyridine-5-carboxylic acid]: the EC50 in assay [1] and in assay [2] was < 15 nM in each case.

For the molecule `N#Cc1ccc(COc2cccc(-c3ccc(Cc4nc5ccc(C(=O)O)c(F)c5n4C[C@@H]4CCO4)c(F)c3)n2)c(F)c1` [Compound 310, (S)-2-(4-(6-((4-cyano-2-fluorobenzyl)oxy)pyridin-2-yl)-2-fluorobenzyl)-7-fluoro-1-(oxetan-2-ylmethyl)-1H-benzo[d]imidazole-6-carboxylic acid], the EC50 in assay [1] and in assay [2] was < 15 nM each time. Also, the Emax in assay [3] is 37.8%.

Consider `O=C(O)c1ccc2nc(Cc3cc(F)c(-c4cccc(OCc5ncc(Cl)cc5F)n4)cc3F)n(C[C@@H]3CCO3)c2n1` [Compound 276, (S)-2-(4-(6-((5-chloro-3-fluoropyridin-2-yl)methoxy)pyridin-2-yl)-2,5-difluorobenzyl)-3-(oxetan-2-ylmethyl)-3H-imidazo[4,5-b]pyridine-5-carboxylic acid], for which the EC50 in assay [1] and in assay [2] was < 15 nM throughout. In assay [4], the “β-arrestin internalization Bmax (POC)” value came out at 26.7 POC. In assay [3], the Emax is 35.6 ± 3.9%.

On to `N#Cc1ccc(COc2nc(-c3ccc(Cc4nc5ccc(C(=O)O)nc5n4C[C@@H]4CCO4)c(F)c3)ncc2F)c(F)c1` [Compound 263, (S)-2-(4-(4-(4-cyano-2-fluorobenzyloxy)-5-fluoropyrimidin-2-yl)-2-fluorobenzyl)-3-(oxetan-2-ylmethyl)-3H-imidazo[4,5-b]pyridine-5-carboxylic acid], for which the 50% effective concentration (EC50) in assay [1] and in assay [2] was < 15 nM each time. Further, the Emax in assay [3] came out at 18.9%.

As for `N#Cc1ccc(COc2nc(-c3ccc(Cc4nc5ccc(C(=O)O)cc5n4C[C@@H]4CCO4)c(F)c3)ncc2F)c(F)c1` [Compound 266, (S)-2-(4-(4-((4-cyano-2-fluorobenzyl)oxy)-5-fluoropyrimidin-2-yl)-2-fluorobenzyl)-1-(oxetan-2-ylmethyl)-1H-benzo[d]imidazole-6-carboxylic acid], the EC50 in assay [1] and in assay [2] was < 15 nM in each case. Besides, the “β-arrestin internalization Bmax (POC)” value in assay [4] was found to be 19.9 ± 0.122 POC. In assay [3], the Emax is 26.7 ± 4.76%.

As to `O=C(O)c1ccc2nn(Cc3ccc(-c4cccc(OCc5ccc(Cl)cc5F)n4)cc3F)c(CC3CCO3)c2c1` (stereo not drawn) [Compound 326, 2-(4-(6-(4-chloro-2-fluorobenzyloxy)pyridin-2-yl)-2-fluorobenzyl)-3-(oxetan-2-ylmethyl)-2H-indazole-S-carboxylic acid], the EC50 in assay [1] was > 1000 nM; in assay [2] it was 15 to 150 nM.

As for `O=C(O)c1ccc2nc(Cc3cc(F)c(-c4cccc(OCc5ccc(-n6ccnc6)cc5)n4)cc3F)n(C[C@@H]3CCO3)c2n1` [Compound 303, (S)-2-(4-(6-(4-(1H-imidazol-1-yl)benzyloxy)pyridin-2-yl)-2,5-difluorobenzyl)-3-(oxetan-2-ylmethyl)-3H-imidazo[4,5-b]pyridine-5-carboxylic acid], the EC50 in assay [1] and in assay [2] was < 15 nM each time. Also, in assay [4], the “β-arrestin internalization Bmax (POC)” value is on record as 28.4 POC. In assay [3], the Emax was determined as 39.2 ± 4.75%.

With `O=C(O)c1ccc2nc(Cc3ccc(-c4nccc(OCc5ccc(Cl)cc5F)n4)cc3F)n(C[C@@H]3CCO3)c2c1F` [Compound 311, (S)-2-(4-(4-((4-chloro-2-fluorobenzyl)oxy)pyrimidin-2-yl)-2-fluorobenzyl)-7-fluoro-1-(oxetan-2-ylmethyl)-1H-benzo[d]imidazole-6-carboxylic acid], the EC50 in assay [1] and in assay [2] was < 15 nM throughout. Besides, the “β-arrestin internalization Bmax (POC)” value in assay [4] amounted to 26.7 ± 4.53 POC. For the same molecule, the Emax in assay [3] worked out at 38.8 ± 7.09%.

Consider `N#Cc1ccc(COc2cccc(-c3cc(F)c(Cc4nc5ccc(C(=O)O)nc5n4C[C@@H]4CCO4)cc3F)n2)nc1` [Compound 279, (S)-2-(4-(6-((5-cyanopyridin-2-yl)methoxy)pyridin-2-yl)-2,5-difluorobenzyl)-3-(oxetan-2-ylmethyl)-3H-imidazo[4,5-b]pyridine-5-carboxylic acid], for which the EC50 in assay [1] and in assay [2] was < 15 nM each time.
